# Entries after “also recorded” stand apart in the source; their conditions may differ. Where two headings read alike, the source gives them in different places.
# Tests used:
# [1] = Red blood cell partitioning; assay type: in vitro ADME
# [2] = Excretion study in bile duct-cannulated (BDC) rats; assay type: in vivo
# [3] = Phase 1 MAD plasma pharmacokinetics; assay type: in vivo, human; conditions: for Cmax at 14 days / concentration at 24 h / Tmax at 14 days: human, plasma, oral, steady-state (Day 14); for Cmax at 14 days / concentration at 24 h: geometric mean (% CV); for concentration at 24 h: read-out: Ctrough; for Tmax at 14 days: median (range)
# From the text: The selection of Compound A doses will be guided by the safety, tolerability, and PK data in humans from the SAD portion of the study. […] Increasing dose levels in subsequent MAD cohorts will be identified based on the safety and PK observed in the previous SAD and MAD cohorts. Dose escalation between each MAD cohort will not exceed 100%.
# However, the dosing interval and the duration of dosing may change following review of the safety, PK, and PD data from Part A. […]
# [4] = molecular target: T1, breast cancer resistance protein (BCRP) (Homo sapiens, UniProt Q9UNQ0); assay: BCRP substrate and efflux inhibition in vitro; assay type: in vitro ADME
# T1 sequence (Q9UNQ0 1-655): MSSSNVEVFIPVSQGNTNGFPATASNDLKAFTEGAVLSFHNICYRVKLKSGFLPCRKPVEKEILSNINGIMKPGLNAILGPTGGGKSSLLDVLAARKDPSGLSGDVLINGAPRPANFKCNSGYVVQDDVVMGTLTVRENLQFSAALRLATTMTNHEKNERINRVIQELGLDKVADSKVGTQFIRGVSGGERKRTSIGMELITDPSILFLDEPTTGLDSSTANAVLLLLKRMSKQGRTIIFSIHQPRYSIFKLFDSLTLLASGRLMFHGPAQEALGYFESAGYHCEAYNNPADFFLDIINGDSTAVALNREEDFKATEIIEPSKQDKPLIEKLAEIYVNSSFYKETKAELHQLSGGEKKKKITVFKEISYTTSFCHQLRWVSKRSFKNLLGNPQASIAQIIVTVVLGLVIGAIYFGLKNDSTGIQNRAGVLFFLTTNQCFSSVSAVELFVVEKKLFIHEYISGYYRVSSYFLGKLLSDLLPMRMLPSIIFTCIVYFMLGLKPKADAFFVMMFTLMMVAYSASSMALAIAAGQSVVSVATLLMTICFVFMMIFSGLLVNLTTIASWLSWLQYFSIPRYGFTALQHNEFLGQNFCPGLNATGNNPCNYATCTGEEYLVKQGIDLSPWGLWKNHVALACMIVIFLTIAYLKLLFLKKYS
# cytochrome P450 (CYP) = assay: In vitro and in vivo metabolism studies; assay type: in vitro ADME
# IRAK4 = assay: In vitro IRAK4 degradation in monkey PBMCs; assay type: cell-based
# [5] = Phase 1 SAD safety and tolerability; assay type: in vivo, human
# Protocol: The safety data up to 24-hours post-dose for these sentinel HVs will be reviewed by the Investigator to ensure acceptable tolerability before commencing administration of the investigational product to the remaining HVs in the cohort. Sequential dosing of HVs within a cohort will be staggered so that there will be at least a gap of 10 minutes between dosing of individual HVs. After the completion of each dose level, the blinded interim PK data through Day 5 and safety data through Day 14 will be reviewed by the SRC before proceeding to the next dose level. Each subsequent dose administration will be performed, if in the judgment of the Investigator and Safety Physician, the results of the safety analyses of the preceding dose administration are satisfactory.
# (§1) All data will be fully listed.
# [6] = Distribution studies in rats; assay type: in vivo
# [7] = system: ex vivo proinflammatory cytokine induction by R848 and LPS in whole blood; assay: Phase 1 MAD ex vivo proinflammatory cytokine induction by R848 and LPS in whole blood; set-up: species or system human; conditions: Day 7-14, daily up to about 200 mg
# From the text: In some embodiments, the cytokines include IFN-γ, IL-12, IL-1β, IL-10, IL-6, TNF-α, IL-8, IL-17, and IL-23.
# [8] = system: R848- or LPS-mediated induction of pro-inflammatory cytokines in whole blood; assay: Phase 1 SAD ex vivo proinflammatory cytokine induction by R848 and LPS in whole blood; set-up: species or system human; conditions: for Mean maximum percent change from baseline, IFNγ / Mean maximum percent change from baseline, IL1β / Mean maximum percent change from baseline, IL6 / Mean maximum percent change from baseline, IL8 / Mean maximum percent change from baseline, IL10 / Mean maximum percent change from baseline, IL12 / Mean maximum percent change from baseline, IL17 / Mean maximum percent change from baseline, TNFα: Cohort 7
# [9] = Phase 1 MAD safety and tolerability; assay type: in vivo, human; conditions: multiple daily doses over 14 days up to 200 mg (MAD 4)
# From the text: Part B: Part B is a double-blind, randomized, placebo-controlled, MAD, sequential group study in 48 adult HVs, divided in 4 cohorts of 12 adult HVs in each cohort. One or more additional cohorts may be added, as needed.
# as §1
# Solubility = assay type: physicochemical
# CYP2C19 = CYP2C19 (Homo sapiens, UniProt P33261); assay: In vitro drug-drug interaction study, CYP2C19; assay type: in vitro ADME
# CYP2C19, sequence (P33261 whole entry): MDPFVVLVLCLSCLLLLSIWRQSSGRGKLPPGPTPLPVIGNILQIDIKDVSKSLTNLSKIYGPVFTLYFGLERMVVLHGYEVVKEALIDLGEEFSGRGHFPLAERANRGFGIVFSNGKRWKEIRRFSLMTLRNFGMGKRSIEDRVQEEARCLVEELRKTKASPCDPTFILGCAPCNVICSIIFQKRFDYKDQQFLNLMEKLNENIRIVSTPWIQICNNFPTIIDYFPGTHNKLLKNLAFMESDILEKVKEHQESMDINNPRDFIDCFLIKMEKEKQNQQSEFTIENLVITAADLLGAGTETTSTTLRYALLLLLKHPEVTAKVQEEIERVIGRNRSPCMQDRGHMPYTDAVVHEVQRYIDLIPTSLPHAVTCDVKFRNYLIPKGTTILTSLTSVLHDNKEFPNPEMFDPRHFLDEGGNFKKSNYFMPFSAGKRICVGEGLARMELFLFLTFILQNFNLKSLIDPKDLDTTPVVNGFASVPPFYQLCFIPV
# [10] = Phase 1 MAD Compound A concentration in skin; assay type: in vivo; conditions: human, oral, Day 14, once daily dosing, read-out: Ctrough (pre-dose) levels in skin relative to plasma
# [11] = blinded SAD safety, per Investigator assessment
smiles,measurement,setting,value
"Cn1c(=O)n([C@@H]2CCC(=O)NC2=O)c2cccc(C#CCOC3CCN(C[C@H]4CC[C@H](n5cc(NC(=O)c6cnn7ccc(N8C[C@H]9C[C@@H]8CO9)nc67)c(C(F)F)n5)CC4)CC3)c21 [Compound A, 5-((1R,4R)-2-oxa-5-azabicyclo[2.2.1]heptan-5-yl)-N-(3-(difluoromethyl)-1-((1r,4R)-4-((4-((3-(1-(2,6-dioxopiperidin-3-yl)-3-methyl-2-oxo-2,3-dihydro-1H-benzo[d]imidazol-4-yl)prop-2-yn-1-yl)oxy)piperidin-1-yl)methyl)cyclohexyl)-1H-pyrazol-4-yl)pyrazolo[1,5-a]pyrimidine-3-carboxamide]",Partitioning into red blood cells,[1],did not significantly partition into red blood cells
same,Biliary and intestinal excretion as parent drug,[2],minor to moderate
same,Renal clearance,[2],negligible
same,Day of dosing by which steady-state was reached,"[3]; MAD, once daily dosing",≤ 7 days
same,Cmax at 14 days,[3]; 25 mg QD,0.0082 µg/mL
same,concentration at 24 h,[3]; 25 mg QD,0.00503 µg/mL
same,Tmax at 14 days,[3]; 25 mg QD,8 h
same,Cmax at 14 days,[3]; 50 mg QD,0.012 µg/mL
same,concentration at 24 h,[3]; 50 mg QD,0.00728 µg/mL
same,Tmax at 14 days,[3]; 50 mg QD,8 h
same,Cmax at 14 days,[3]; 100 mg QD,0.0161 µg/mL
same,concentration at 24 h,[3]; 100 mg QD,0.00981 µg/mL
same,Tmax at 14 days,[3]; 100 mg QD,8 h
same,Cmax at 14 days,[3]; 200 mg QD,0.0252 µg/mL
same,concentration at 24 h,[3]; 200 mg QD,0.0188 µg/mL
same,Tmax at 14 days,[3]; 200 mg QD,8 h
same,BCRP efflux inhibition,[4],inhibited BCRP efflux
same,BCRP substrate,[4],substrate
same,Primary metabolizing enzyme,cytochrome P450 (CYP),primarily metabolized by CYP3A4
same,Metabolic pathway,cytochrome P450 (CYP); in vitro and in vivo,oxidative metabolism via cytochrome P450 (CYP)
same,ECG changes,[5]; SAD,No significant ECG changes
same,QTcF prolongation,[5]; SAD,no clinically significant QTcF prolongation
same,Serious adverse events,[5]; SAD,no serious adverse events; also recorded: No SAEs
same,AST elevation,"[5]; SAD 5, n=1, resolution ~Day 21",3.8 × ULN
same,ALT elevation,"[5]; SAD 5, n=1, slow resolution to baseline",2.5 × ULN
same,"Study treatment related AEs, Abdominal pain, #AEs",[5]; [11],1
same,"Study treatment related AEs, Diarrhea, #AEs",[5]; [11],2
same,"Study treatment related AEs, Diarrhea, (subjects)",[5]; [11],(2)
same,"Study treatment related AEs, Headache, #AEs",[5]; [11],5
same,"Study treatment related AEs, Headache, (subjects)",[5]; [11],(4)
same,"Study treatment related AEs, Muscle weakness, #AEs",[5]; [11],1
same,"Study treatment related AEs, Myalgia, #AEs",[5]; [11],1
same,"Study treatment related AEs, Nausea, #AEs",[5]; [11],3
same,"Study treatment related AEs, Nausea, (subjects)",[5]; [11],(3)
same,"Study treatment related AEs, Palpitations, #AEs",[5]; [11],1
same,"Study treatment related AEs, Vomiting, #AEs",[5]; [11],2
same,"Study treatment related AEs, Vomiting, (subjects)",[5]; [11],(1)
same,Safety and tolerability,"[5]; single doses, SAD",safe and well-tolerated
same,Tissue distribution,[6],extensively distributed into tissues
same,Inhibition of IFN-γ in whole blood,[7],up to 85%
same,Mean maximum ex vivo cytokine inhibition,"[8]; 24-48 h post-dose, LPS or R848, whole blood",up to 97%
same,"Mean maximum percent change from baseline, IFNγ","[8]; LPS, 24-48 hours",−42%^
same,"Mean maximum percent change from baseline, IL1β","[8]; LPS, 24-48 hours",−68%^1
same,"Mean maximum percent change from baseline, IL6","[8]; LPS, 24-48 hours",−62%^1
same,"Mean maximum percent change from baseline, IL8","[8]; LPS, 24-48 hours",−81%^1
same,"Mean maximum percent change from baseline, IL10","[8]; LPS, 24-48 hours",−83%^1
same,"Mean maximum percent change from baseline, IL12","[8]; LPS, 24-48 hours",−35%^2
same,"Mean maximum percent change from baseline, IL17","[8]; LPS, 24-48 hours",−43%^2
same,"Mean maximum percent change from baseline, TNFα","[8]; LPS, 24-48 hours",−42%^2
same,"Mean maximum percent change from baseline, IFNγ","[8]; R848, 24-48 hours",−97%^2
same,"Mean maximum percent change from baseline, IL1β","[8]; R848, 24-48 hours",−92%^1
same,"Mean maximum percent change from baseline, IL6","[8]; R848, 24-48 hours",−88%^1
same,"Mean maximum percent change from baseline, IL8","[8]; R848, 24-48 hours",−54%^
same,"Mean maximum percent change from baseline, IL10","[8]; R848, 24-48 hours",−89%^1
same,"Mean maximum percent change from baseline, IL12","[8]; R848, 24-48 hours",−93%^1
same,"Mean maximum percent change from baseline, IL17","[8]; R848, 24-48 hours",−79%^1
same,"Mean maximum percent change from baseline, TNFα","[8]; R848, 24-48 hours",−88%^2
same,Safety and tolerability,[9],safe and well-tolerated
same,BCS classification (tentative),Solubility,BCS II
same,solubility,Solubility,low
same,solubility,"Solubility; FaSSIF, pH 6.5, fassif, read-out: Solubility in bio-relevant fluid FaSSIF",< 12 mg/mL
same,solubility,"Solubility; aqueous media, aqueous buffer, across the physiological pH range, read-out: Aqueous solubility",≤ 3 mg/mL
same,Inhibition of CYP2C19,CYP2C19,potential time dependent inhibition
same,Kp at 14 day,[10],~10
